Assay results as given in patent publication US10781203B2, “Nontoxic compounds for the treatment and prevention of herpesvirus infections” (The Penn State Research Foundation, priority 2016, dated 2020).

How the values were obtained:
[1] = test system: Towne, TB40, Merlin and Toledo strains of HCMV; test: Viral titers of fibroblasts infected with various strains of HCMV; assay type: cell-based, Human cytomegalovirus (HCMV); details: all four strains; MOI=0.05; treated at 2 hpi; 15 dpi
Procedure: (§1) FIG. 7A is a graph showing viral titers at 15 dpi of fibroblasts infected with various strains of HCMV (MOI=0.05) and treated with DMSO or Retro94 at 2 hpi. Media was changed and fresh Retro94 was added at 6 dpi. Bright field images representing CPE of above infections shown at right. FIG. 7B show HCMV-infected ARPE-19 cells (TB40, MOI=3) at 21 dpi treated with DMSO or Retro94 ([…]). Infected cells detected by monitoring mCherry (red) expressed by TB40 virus. Scale bars: 1 mm. The table below images show number of foci detected, average area and standard error of the mean. P<0.00001. […]
(§2) For MCMV growth curve analysis, samples were titrated on NIH 3T3 cells and titers were calculated using the 50% tissue culture infective dose method. Both HCMV virus stocks and samples for growth curves were titrated by serial dilutions on MRC5 cells and quantified by the immunological detection of immediate-early proteins as previously described (Britt W J. Human cytomegalovirus: propagation, quantification, and storage. Curr Protoc Microbiol. 2010; Chapter 14: Unit 14E.3). The numbers of stained nuclei were acquired on a Nikon Eclipse Ti Inverted microscope and fluorescent nuclei were quantified using the NIS Elements Software. […] The number and size of foci were quantified using NIS Elements software.

[2] = test system: HCMV-infected ARPE-19 cells (TB40); test: Spread of HCMV TB40-mCherry in ARPE-19 cells (viral foci area); assay type: cell-based, Human cytomegalovirus (HCMV); details: TB40-mCherry MOI=3, 10 μM, three weeks after infection
Procedure: as §1, §2

Cc1nc(-c2ccc(C3N(C)c4ccccc4C(=O)N3c3ccccc3)s2)cs1 (centres unmarked) [Retro94, 1-Methyl-2-(5-(2-methylthiazol-4-yl)thiophen-2-yl)-3phenyl-2,3-dihydroquinazolin-4(1H)-one]
viral titers lower in the presence of compound [1]: two to three | area of viral centers, DMSO treated versus compound treated cells [2]: more than twice
